Data: article PMC5558686 (British Journal of Cancer, 2017)
Counter-ions that a name gives are not always drawn.

Tests used:
[1] = test system: UACC 903 xenografted tumours; test: Xenografted melanoma tumour growth; assay type: in vivo, athymic-Foxn1−/− (nude) mice; conditions: for reduction of tumour growth / tumour inhibition: oral administration, UACC 903 xenograft, day 22
UACC 903 cells [2] = test: Western blot of autophagic flux markers LC3B and p62/SQSTM1; assay type: cell-based
UACC 903 cells [3] = test: Cholesterol localisation assay; assay type: cell-based; conditions: after 6 h
UACC 903 cells [4] = test: Co-treatment with apoptosome inhibitor NS3694, viability; assay type: cell-based; conditions: 50 μMol/l NS-3694 co-treatment
[5] = test system: UACC 903, 1205 Lu and A2058 tumour development; test: Xenografted melanoma tumour growth; assay type: in vivo, athymic-Foxn1−/− (nude) mice; conditions: for tumour weights lower than control groups: end of treatment, Figure 2E and H (UACC 903 and A2058); for decrease in tumour development: oral, perphenazine 50 mg kg^−1 or fluphenazine 25 mg kg^−1 at 4-day intervals
[6] = CNS related sedation, video surveillance; assay type: in vivo, Swiss Webster mice; conditions: for onset of sedation after oral administration / persistence of sedation: xenograft mice, oral
[7] = Body weight of treated mice; assay type: in vivo; conditions: for loss of body weight: xenograft mice, 2 days after oral drug treatments
UACC 903 cells [8] = test: Co-treatment with necrosis inhibitors IM-54 / Necrostatin-5, viability; assay type: cell-based; conditions: IM-54 and Necrostatin-5
prostate cancer = conditions: phase-2; ref Clinical Trial Id: NCT00417274; cited from earlier work
[9] = test system: BAX-knockout HCT116 cells; test: Viability of BAX-knockout HCT116 cells; assay type: cell-based, human; conditions: 24 h, increasing concentrations
Serum toxicity markers = assay type: in vivo, mice; conditions: serum at end of oral treatment
[10] = H&E histology of major organs; assay type: in vivo, mice; conditions: oral treatment
UACC 903 cells [11] = test: Mitochondrial membrane potential; assay type: cell-based
UACC 903 cells [12] = test: Caspase-dependence, z-VAD-fmk pre-treatment, viability; assay type: cell-based; conditions: z-VAD-fmk 20 μmol l^−1, 1 h pre-treatment; TRAIL 50 ng ml^−1

## CNCCCN1c2ccccc2CCc2ccccc21 [Desipramine, Desipramine HCL]
[1]
  reduction of tumour growth / tumour inhibition: 30%

## CNCCC=C1c2ccccc2CCc2ccccc21 [Nortriptyline, Nortriptyline HCL]
[1]
  reduction of tumour growth / tumour inhibition: 50%
UACC 903 cells [2]
  LC3B and p62 protein levels (western blot): dose-dependent accumulation of LC3B and p62 proteins

## CCN(CC)CCO[C@H]1CC[C@@]2(C)C(=CC[C@@H]3[C@@H]2CC[C@]2(C)C(=O)CC[C@@H]32)C1.Cl [U18666A, U-18666A]
UACC 903 cells [3]
  intracellular cholesterol accumulation (Filipin-III staining): intracellular cholesterol accumulation

## OCCN1CCN(CCC=C2c3ccccc3Sc3ccc(C(F)(F)F)cc32)CC1 [Flupentixol, Flupenthixol diHCL]
UACC 903 cells [4]
  protection from cell death by NS-3694: partially protected

## OCCN1CCN(CCCN2c3ccccc3Sc3ccc(C(F)(F)F)cc32)CC1 [Fluphenazine]
[5]
  tumour weights lower than control groups: 40–60%
  decrease in tumour development: 40–60%
[6]
  onset of sedation after oral administration: Thirty to sixty minutes
  persistence of sedation: > 24 h
[7]
  loss of body weight: 10%
UACC 903 cells [2]
  LC3B and p62 protein levels (western blot): dose-dependent accumulation of LC3B and p62 proteins
UACC 903 cells [4]
  protection from cell death by NS-3694: partially protected

## CC(C)c1ccc2c(c1)CC[C@H]1[C@](C)(CN)CCC[C@]21C [Leelamine]
UACC 903 cells [3]
  intracellular cholesterol accumulation (Filipin-III staining): intracellular cholesterol accumulation
UACC 903 cells [8]
  protection from cell death by necrosis inhibitors: neither of the two necrosis inhibitors, IM-54 and Necrostatin-5, protected

## CCN(CC)CCCC(C)Nc1c2ccc(Cl)cc2nc2ccc(OC)cc12 (stereo not shown) [quinacrine, Mepacrine (Quinacrine) DiHCL]
Prostate cancer
  patients with stabilisation or decrease in the rate of disease progression: ~50 % of the patients

## OCCN1CCN(CCCN2c3ccccc3Sc3ccc(Cl)cc32)CC1 [Perphenazine]
[9]
  sensitivity of BAX-knockout compared with wild-type HCT116 cells: more resistant
[1]; 12.5 or 25 mg kg^−1, orally every other day
  inhibition of UACC 903 tumour development by the free drug: ineffective
[1]
  reduction of tumour growth / tumour inhibition: 60%
[1]; tumours from treated animals
  mitotic figures in H&E stained tumour sections: significant decrease in mitotic figure numbers
[5]
  tumour weights lower than control groups: 40–60%
  decrease in tumour development: 40–60%
Serum toxicity markers
  total bilirubin levels compared to controls: significantly higher
[10]
  histological analysis of vital organs: no alteration in cell morphology or tissue architecture
[6]; 15 mg kg^−1 oral
  % of time mice awake in 24 h period: slightly greater sedative effect compared to liposomal treatment
[6]; 50 mg kg^−1 oral
  % of time mice awake in 24 h period: 6%
[6]
  onset of sedation after oral administration: Thirty to sixty minutes
  persistence of sedation: > 24 h
[7]; Swiss Webster mice, following treatment
  body weight loss: 10%
[7]
  loss of body weight: 10%
UACC 903 cells [2]
  LC3B and p62 protein levels (western blot): dose-dependent accumulation of LC3B and p62 proteins
UACC 903 cells [11]; 6 h 10 μM
  ΔΨmt − (cells that lost MMP): 19%
UACC 903 cells [11]; 6 h 15 μM
  ΔΨmt − (cells that lost MMP): 28%
UACC 903 cells [4]
  protection from cell death by NS-3694: partially protected

B1: TRAIL: positive control for caspase-dependent cell death (50 ng ml^−1) (protein, UniProt P50591 1-281, looked up)
Tumor necrosis factor ligand …: MAMMEVQGGPSLGQTCVLIVIFTVLLQSLCVAVTYVYFTNELKQMQDKYSKSGIACFLKEDDSYWDPNDEESMNSPCWQVKWQLRQLVRKMILRTSEETISTVQEKQQNISPLVRERGPQRVAAHITGTRGRSNTLSSPNSKNEKALGRKINSWESSRSGHSFLSNLHLRNGELVIHEKGFYYIYSQTYFRFQEEIKENTKNDKQMVQYIYKYTSYPDPILLMKSARNSCWSKDAEYGLYSIYQGGIFELKENDRIFVSVTNEHLIDMDHEASFFGAFLVG
UACC 903 cells [12]
  effect of pan-caspase inhibitor z-VAD-fmk on cell death: protected cells from apoptosis
